Values of other authors, collected in patent publication US20160120807A1, “CELL-SURFACE DECORATION WITH ACTIVE AGENTS” (University of Louisville Research Foundation, Inc., priority 2005, published 2016).

Columns and labels:
NPY Y1 receptor [1] = biological target: T1, NPY Y1 receptor (Homo sapiens, UniProt P25929)
T1 construct: host or cells: smooth muscle cells; vessel after angioplasty
T1 sequence (P25929 1-384): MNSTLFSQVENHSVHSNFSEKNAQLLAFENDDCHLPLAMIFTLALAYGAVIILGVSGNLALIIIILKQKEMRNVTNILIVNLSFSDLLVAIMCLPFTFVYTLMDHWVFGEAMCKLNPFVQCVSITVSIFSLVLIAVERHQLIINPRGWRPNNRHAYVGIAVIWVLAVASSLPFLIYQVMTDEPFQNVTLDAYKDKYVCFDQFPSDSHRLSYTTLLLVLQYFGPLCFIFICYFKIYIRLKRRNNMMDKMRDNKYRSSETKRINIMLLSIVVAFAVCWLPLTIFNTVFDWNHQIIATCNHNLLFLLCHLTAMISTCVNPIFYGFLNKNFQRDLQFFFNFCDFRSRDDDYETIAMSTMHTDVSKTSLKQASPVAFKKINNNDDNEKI

NPY Y1 receptor [2] = biological target: T1, NPY Y1 receptor; remark: listed apart in the source

neointimal hyperplasia after angioplasty (NPY Y1 receptor [2]): reduces neointimal hyperplasia
SMILES: N=C(N)NCCC[C@@H](NC(=O)C(c1ccccc1)c1ccccc1)C(=O)NCc1ccc(O)cc1 [BIBP3226, (R)—N2-(diphenylacetyl)-N-[(4-hydroxy-phenyl)methyl]-D-arginine-amide]
mitogen-activated protein kinase (MAPK) activity in smooth muscle cells (NPY Y1 receptor [1]): reduces mitogen-activated protein kinase (MAPK) activity
